Columns and labels:
[1] = tested on: Pfa1 Gpx4−/− overexpressing hFSP1 Y296A; assay: Cell viability (Alamar blue), hFSP1 Y296A; type: cell-based, murine
Protocol: (§1) Cell Lines. 4-hydroxytamoxifen (TAM)-inducible Gpx4^−/− murine immortalized fibroblasts (Pfa1) were reported previously. These cells harbor two loxP-flanked Gpx4 alleles and stably express TAM inducible Cre recombinase allowing the genetic deletion of Gpx4 at will. For all experiments using Gpx4^−/− the well were treated with 4-hydroxitamoxifen (TAM) 1 µM. All cells were cultured with were cultured in DMEM-high glucose (4.5 g glucose/L) with 10% fetal bovine serum (FBS), Glutamax, and 1% penicillin/streptomycin (Gibco, Thermo Fischer) at 37 °C with 5% CO2 and verified to be negative for mycoplasma.
(§2) Cell viability assays. Alamar Blue method: Cells were seeded on 96-well plates (2000 cells per well) and treated with the compounds RSL3, iFSP1 and (liproxstatin-1) after plating. Cell viability was assessed 48 h (unless stated otherwise) after treatment using Alamar Blue as an indicator of viable cells. Alamar blue solution was made by dissolving of 1 g resazurin sodium salt (Thermo Fischer) in 200 mL sterile PBS and sterile filtrated through a 0.22 µm filter. Stock solutions were stored at 4 °C. The working solution was made freshly by adding 200 µL of the stock solution to 25 mL growth media. After 2–4 h incubation time, viability was estimated by measuring the fluorescence using a 540/35 excitation filter and a 590/20 emission on a Spark® microplate reader (Tecan, Zürich, Switzerland).

[2] = tested on: Pfa1 Gpx4−/− overexpressing chimeric FSP1 C2; assay: Cell viability (Alamar blue), chimeric construct C2; type: cell-based, murine; settings: Mus musculus; chimeric construct C2 (human residues 59 to 120); x axis iFSP1 (μM); read-out: IC50 (dose-response toxicity)
Protocol: as §1
as §2, with “Switzerland). […]” for “Switzerland).”

`Cc1ccc(-c2c(C#N)c(N)n3c(nc4ccccc43)c2C#N)cc1` [iFSP1] was tested, and the “inhibitor activity (ferroptosis induction)” value [1] was “abolishes the inhibitor activity”, the IC50 ([1]; Mus musculus, x axis iFSP1 (μM), read-out: IC50 (dose-response toxicity)) was 5.62 µM and the IC50 [2] was 6.2 µM.

Reference: article PMC10119282, “Molecular characterization of AIFM2/FSP1 inhibition by iFSP1-like molecules” (Cell Death & Disease, 2023)
